Read-outs that look alike come from different tables or passages of the source.
Tests used:
COS-7 = experiment: MTT assay, COS-7 normal cells; assay type: cell-based, monkey; conditions: normal cell line, read-out: IC50 values ± SD, COS-7
Text: (§1) The impact of acridine spiro derivatives 6–10 (Figure 13) on the metabolic activity of various tumor cell lines HCT-116 (human colorectal carcinoma), Jurkat (human leukemia cells), HeLa (human cervical adenocarcinoma), MDA-MB-231, and MCF-7 (human breast adenocarcinoma), and normal cell lines COS-7 (monkey kidney cells) and BJ-5ta (skin fibroblasts) was investigated using the MTT assay. This assay measures the conversion of yellow 3-(4,5-dimethylthiazol-2-yl)-2,5-diphenyltetrazolium bromide (MTT) to insoluble purple formazan by metabolically active cells. The antiproliferative activities of the tested compounds were determined based on the results from the MTT assay, and the inhibitory concentration values (IC50) are presented in Table 5.
(§2) The human cancer cell lines employed in this study were sourced from reputable institutions, including the American Type Culture Collection (ATCC; Manassas, VA, USA) and the European Collection of Authenticated Cell Cultures (ECACC, Salisbury, UK). Specifically, HeLa (93021013, human cervical adenocarcinoma), HCT116 (CCL-247TM, human colorectal carcinoma), and Jurkat (88042803, human leukemic T-cell lymphoma) were cultured in RPMI 1640 medium (Biosera, Kansas City, MO, USA). In contrast, MCF-7 (HTB-22TM, human breast adenocarcinoma, ER+), MDA-MB-231 (HTB-26TM, human breast adenocarcinoma, ER−), and COS-7 (CRL-1651TM, kidney fibroblasts) were nurtured in high-glucose Dulbecco’s Modified Eagle Medium (DMEM) supplemented with sodium pyruvate (Biosera). Furthermore, BJ-5ta (CRL-4001TM, human dermal fibroblasts) was cultured in a composite medium of high-glucose DMEM and M199 (4:1) (Biosera), supplemented with Hygromycin B (0.01 mg/mL; Merck, Darmstadt, Germany). All culture media were enriched with a 10% fetal bovine serum (FBS; Gibco, Thermo Scientific, Rockford, IL, USA) and an antibiotic/antimycotic solution (Merck) to ensure optimal growth conditions. The cells were meticulously maintained within a humidified environment containing 5% CO2 at 37 °C. Regular screenings for mycoplasma contamination were conducted using Hoechst 33342 staining (Merck), confirming the integrity of the cell lines.
(§3) To assess the antiproliferative impact of the synthesized compounds 6–10, their half-maximal inhibitory concentration (IC50) and the MTT colorimetric assay were employed. MDA-MB-231 and MCF-7 cells were seeded into 96-well microplates (SARSTEDT, Nümbrecht, Germany) at a density of 5 × 10^3 cells per well. After 24 h of cell seeding, various concentrations (100, 50, and 10 µmol/L) of acridine derivatives 6–10 were introduced, alongside cisplatin (utilized as a reference) at concentrations of 5, 10, 20, 50, and 100 µmol/L. Subsequent to 24, 48, and 72 h of treatment, the cells in each well underwent incubation with MTT (5 mg/mL, Sigma-Aldrich Chemie, Steinheim, Germany) for 4 h at 37 °C in the dark. During this period, mitochondrial oxidoreductases metabolized MTT, forming insoluble formazan. Following this, 100 µL of SDS (10% […]) was added to dissolve the formazan crystals, and the cells were incubated for an additional 12 h. Absorbance at 540 nm was measured using the automated Cytation™ 3 Cell Imaging Multi-Mode Reader (Biotek, Winooski, VT, USA). Each test was performed in triplicate, and three independent experiments were conducted to ensure precision and reliability.

BJ-5ta = experiment: MTT assay, BJ-5ta normal fibroblasts; assay type: cell-based, human; conditions: 72 h of incubation, normal cell line, read-out: IC50 values ± SD, BJ-5ta
Text: as §1, §2, §3

MDA-MB-231 = experiment: MTT assay, MDA-MB-231 cells; assay type: cell-based, human; conditions: read-out: IC50 values ± SD, MDA-MB-231
Text: as §1, §2, §3

Jurkat = experiment: MTT assay, Jurkat cells; assay type: cell-based, human; conditions: MTT, 72 h of incubation, read-out: IC50 values ± SD, Jurkat
Text: as §1, §2, §3

HeLa = experiment: MTT assay, HeLa cells; assay type: cell-based, human; conditions: 72 h of incubation, read-out: IC50 values ± SD, HeLa
Text: as §1, §2, §3

HCT-116 = experiment: MTT assay, HCT-116 cells; assay type: cell-based, human; conditions: MTT, 72 h of incubation, read-out: IC50 values ± SD, HCT-116
Text: as §1, §2, §3

MCF-7 = experiment: MTT assay, MCF-7 cells; assay type: cell-based, human; conditions: read-out: IC50 values ± SD, MCF-7
Text: as §1, §2, §3

[1] = Primates, COS-7, 72 h of incubation
[2] = Homo sapiens, MDA-MB-231, 72 h of incubation
[3] = Homo sapiens, MCF7, 72 h of incubation

## CC1S/C(=N\N2C(=O)C(C#N)=CC23c2ccccc2Nc2ccccc23)N(c2ccc([N+](=O)[O-])cc2)C1=O (stereo not shown) [9e, 1′-{[(2Z)-5-Methyl-3-(4-nitrophenyl)-4-oxo-1,3-thiazolidin-2-ylidene]amino}-5′-oxo-1′,5′-dihydro-10H-spiro[acridine-9,2′-pyrrole]-4′-carbonitrile]
COS-7; [1]
  IC50: > 100 µM
BJ-5ta; Homo sapiens, Fibroblast
  IC50: > 100 µM
MDA-MB-231; [2]
  IC50: > 100 µM
Jurkat; Homo sapiens, Jurkat
  IC50: 34.4 ± 2.13 µM
HeLa; Homo sapiens, HeLa
  IC50: > 100 µM
HCT-116; Homo sapiens, HCT-116
  IC50: > 100 µM
MCF-7; [3]
  IC50: > 100 µM
other
  melting point: 170 to 173 °C (dec.)

## CC1S/C(=N\N2C(=O)C(C#N)=CC23c2ccccc2Nc2ccccc23)N(c2ccc(F)cc2)C1=O (stereo not shown) [9d, 1′-{[(2Z)-3-(4-Fluorophenyl)-5-methyl-4-oxo-1,3-thiazolidin-2-ylidene]amino}-5′-oxo-1′,5′-dihydro-10H-spiro[acridine-9,2′-pyrrole]-4′-carbonitrile]
COS-7; [1]
  IC50: > 100 µM
BJ-5ta; Homo sapiens, Fibroblast
  IC50: > 100 µM
MDA-MB-231; [2]
  IC50: > 100 µM
Jurkat; Homo sapiens, Jurkat
  IC50: > 100 µM
HeLa; Homo sapiens, HeLa
  IC50: > 100 µM
HCT-116; Homo sapiens, HCT-116
  IC50: > 100 µM
MCF-7; [3]
  IC50: > 100 µM
other
  melting point: 235 to 239 °C (dec.)

## CCCC1S/C(=N\N2C(=O)C(C#N)=CC23c2ccccc2Nc2ccccc23)N(c2ccc(OC)cc2)C1=O (stereo not shown) [10b, 1′-{[(2Z)-3-(4-Methoxyphenyl)-4-oxo-5-propyl-1,3-thiazolidin-2-ylidene]amino}-5′-oxo-1′,5′-dihydro-10H-spiro[acridine-9,2′-pyrrole]-4′-carbonitrile]
COS-7; [1]
  IC50: > 100 µM
BJ-5ta; Homo sapiens, Fibroblast
  IC50: > 100 µM
MDA-MB-231; [2]
  IC50: > 100 µM
Jurkat; Homo sapiens, Jurkat
  IC50: > 100 µM
HeLa; Homo sapiens, HeLa
  IC50: > 100 µM
HCT-116; Homo sapiens, HCT-116
  IC50: > 100 µM
MCF-7; [3]
  IC50: > 100 µM
other
  melting point: 247 to 250 °C (dec.)

## CCCC1S/C(=N\N2C(=O)C(C#N)=CC23c2ccccc2Nc2ccccc23)N(c2cccc(OC)c2)C1=O (stereo not shown) [10c, 1′-{[(2Z)-3-(3-Methoxyphenyl)-4-oxo-5-propyl-1,3-thiazolidin-2-ylidene]amino}-5′-oxo-1′,5′-dihydro-10H-spiro[acridine-9,2′-pyrrole]-4′-carbonitrile]
COS-7; [1]
  IC50: > 100 µM
BJ-5ta; Homo sapiens, Fibroblast
  IC50: > 100 µM
MDA-MB-231; [2]
  IC50: > 100 µM
Jurkat; Homo sapiens, Jurkat
  IC50: > 100 µM
HeLa; Homo sapiens, HeLa
  IC50: > 100 µM
HCT-116; Homo sapiens, HCT-116
  IC50: > 100 µM
MCF-7; [3]
  IC50: > 100 µM
other
  melting point: 229 to 231 °C (dec.)

## N.N.[Cl][Pt][Cl] [Cisplatin, cisplatin, reference compound]
COS-7; 72 h of incubation
  IC50: 24.6 ± 1.4 µM
BJ-5ta
  IC50: 36 ± 1.87 µM
MDA-MB-231; 72 h of incubation
  IC50: 7.1 ± 0.9 µM
Jurkat
  IC50: 8.18 ± 1.6 µM
HeLa
  IC50: 35.4 ± 2.5 µM
HCT-116
  IC50: 12.4 ± 2.1 µM
MCF-7; 72 h of incubation
  IC50: 26.5 ± 3.19 µM

## COc1ccc(N2C(=O)C(C)S/C2=N\N2C(=O)C(C#N)=CC23c2ccccc2Nc2ccccc23)cc1 (stereo not shown) [9b, 1′-{[(2Z)-3-(4-Methoxyphenyl)-5-methyl-4-oxo-1,3-thiazolidin-2-ylidene]amino}-5′-oxo-1′,5′-dihydro-10H-spiro[acridine-9,2′-pyrrole]-4′-carbonitrile]
COS-7; [1]
  IC50: > 100 µM
BJ-5ta; Homo sapiens, Fibroblast
  IC50: > 100 µM
MDA-MB-231; [2]
  IC50: > 100 µM
Jurkat; Homo sapiens, Jurkat
  IC50: > 100 µM
HeLa; Homo sapiens, HeLa
  IC50: > 100 µM
HCT-116; Homo sapiens, HCT-116
  IC50: > 100 µM
MCF-7; [3]
  IC50: > 100 µM
other
  melting point: 219 to 224 °C (dec.)

## CCOC(=O)/C=C1\S/C(=N\N2C(=O)C(C#N)=CC23c2ccccc2Nc2ccccc23)N(c2ccc(OC)cc2)C1=O [8b, Ethyl 2-[(2Z,5Z)-2-({4′-cyano-5′-oxo-1′,5′-dihydro-10H-spiro[acridine-9,2′-pyrrol]-1′-yl}imino)-3-(4-methoxyphenyl)-4-oxo-1,3-thiazolidin-5-ylidene]acetate]
COS-7; [1]
  IC50: 11.5 ± 1.74 µM
BJ-5ta; Homo sapiens, Fibroblast
  IC50: 6.82 ± 0.24 µM
MDA-MB-231; [2]
  IC50: 7.43 ± 0.72 µM
Jurkat; Homo sapiens, Jurkat
  IC50: 5.67 ± 0.03 µM
HeLa; Homo sapiens, HeLa
  IC50: 16.9 ± 3.5 µM
HCT-116; Homo sapiens, HCT-116
  IC50: 5.37 ± 0.01 µM
MCF-7; [3]
  IC50: 12.8 ± 4.24 µM

## COc1ccc(NC(=S)NN2C(=O)C(C#N)=CC23c2ccccc2Nc2ccccc23)cc1 [6b, 3-{4′-Cyano-5′-oxo-1′,5′-dihydro-10H-spiro[acridine-9,2′-pyrrol]-1′-yl}-1-(4-methoxyphenyl)thiourea]
COS-7; [1]
  IC50: > 100 µM
BJ-5ta; Homo sapiens, Fibroblast
  IC50: > 100 µM
MDA-MB-231; [2]
  IC50: > 100 µM
Jurkat; Homo sapiens, Jurkat
  IC50: 39.9 ± 5.19 µM
HeLa; Homo sapiens, HeLa
  IC50: > 100 µM
HCT-116; Homo sapiens, HCT-116
  IC50: 41.5 ± 4.77 µM
MCF-7; [3]
  IC50: > 100 µM

## N#CC1=CC2(c3ccccc3Nc3ccccc32)N(/N=C2\SCC(=O)N2c2ccccc2)C1=O [7a, 5′-Oxo-1′-{[(2Z)-4-oxo-3-phenyl-1,3-thiazolidin-2-ylidene]amino}-1′,5′-dihydro-10H-spiro[acridine-9,2′-pyrrole]-4′-carbonitrile]
COS-7; [1]
  IC50: > 100 µM
BJ-5ta; Homo sapiens, Fibroblast
  IC50: > 100 µM
MDA-MB-231; [2]
  IC50: > 100 µM
Jurkat; Homo sapiens, Jurkat
  IC50: > 100 µM
HeLa; Homo sapiens, HeLa
  IC50: 51.2 ± 3.32 µM
HCT-116; Homo sapiens, HCT-116
  IC50: 41.3 ± 2.3 µM
MCF-7; [3]
  IC50: 21.62 ± 0.1 µM
other
  melting point: 241 to 243 °C (dec.)

## CCCC1S/C(=N\N2C(=O)C(C#N)=CC23c2ccccc2Nc2ccccc23)N(c2ccc(F)cc2)C1=O (stereo not shown) [10d, 1′-{[(2Z)-3-(4-Fluorophenyl)-4-oxo-5-propyl-1,3-thiazolidin-2-ylidene]amino}-5′-oxo-1′,5′-dihydro-10H-spiro[acridine-9,2′-pyrrole]-4′-carbonitrile]
COS-7; [1]
  IC50: > 100 µM
BJ-5ta; Homo sapiens, Fibroblast
  IC50: > 100 µM
MDA-MB-231; [2]
  IC50: > 100 µM
Jurkat; Homo sapiens, Jurkat
  IC50: > 100 µM
HeLa; Homo sapiens, HeLa
  IC50: > 100 µM
HCT-116; Homo sapiens, HCT-116
  IC50: > 100 µM
MCF-7; [3]
  IC50: > 100 µM
other
  melting point: 230 to 232 °C (dec.)

## CCCC1S/C(=N\N2C(=O)C(C#N)=CC23c2ccccc2Nc2ccccc23)N(c2ccccc2)C1=O (stereo not shown) [10a, 5′-Oxo-1′-{[(2Z)-4-oxo-3-phenyl-5-propyl-1,3-thiazolidin-2-ylidene]amino}-1′,5′-dihydro-10H-spiro[acridine-9,2′-pyrrole]-4′-carbonitrile]
COS-7; [1]
  IC50: > 100 µM
BJ-5ta; Homo sapiens, Fibroblast
  IC50: > 100 µM
MDA-MB-231; [2]
  IC50: > 100 µM
Jurkat; Homo sapiens, Jurkat
  IC50: > 100 µM
HeLa; Homo sapiens, HeLa
  IC50: > 100 µM
HCT-116; Homo sapiens, HCT-116
  IC50: > 100 µM
MCF-7; [3]
  IC50: > 100 µM
other
  melting point: 238 to 240 °C (dec.)

Reference: article PMC10537105, “Derivatives Incorporating Acridine, Pyrrole, and Thiazolidine Rings as Promising Antitumor Agents” (Molecules, 2023)
